Source: patent US20250302815A1, “PROTEIN TYROSINE PHOSPHATASE TARGETING LIGANDS” (CALICO LIFE SCIENCES LLC, priority 2021, published 2025)

What was measured:
PTPN2 (B16F10.4 cells) = target: T1, PTPN2 (B16F10.4 cells) (Mus musculus, UniProt Q06180); experiment: HiBiT Degradation B16F10.4 PTPN2; format: cell-based; details: 24.0 hours
T1 construct: HiBiT; host or cells: B16F10.4
T1 sequence (Q06180 1-406): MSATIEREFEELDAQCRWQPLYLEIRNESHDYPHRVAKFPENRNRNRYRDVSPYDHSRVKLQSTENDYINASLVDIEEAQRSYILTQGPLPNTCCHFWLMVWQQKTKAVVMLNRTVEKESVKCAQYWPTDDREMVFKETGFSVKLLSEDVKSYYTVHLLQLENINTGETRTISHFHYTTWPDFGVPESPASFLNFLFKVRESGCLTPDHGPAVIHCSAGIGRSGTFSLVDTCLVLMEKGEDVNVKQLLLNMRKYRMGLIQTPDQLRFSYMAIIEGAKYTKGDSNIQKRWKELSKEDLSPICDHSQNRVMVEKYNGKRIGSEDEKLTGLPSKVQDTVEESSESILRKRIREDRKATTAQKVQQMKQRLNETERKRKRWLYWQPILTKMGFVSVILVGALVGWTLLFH

[1] = target: T2, PTPN2 (HiBIT-PTPN2 in 293T.109 cells) (Homo sapiens, UniProt P17706); experiment: HiBiT Degradation 293T.109 PTPN2 (Nano-Glo HiBiT Lytic Assay); format: cell-based; details: 24.0 hours
T2 construct: expressed in transfected cells; host or cells: 293T.109 (293T WT from ATCC)
T2 sequence (P17706 1-415): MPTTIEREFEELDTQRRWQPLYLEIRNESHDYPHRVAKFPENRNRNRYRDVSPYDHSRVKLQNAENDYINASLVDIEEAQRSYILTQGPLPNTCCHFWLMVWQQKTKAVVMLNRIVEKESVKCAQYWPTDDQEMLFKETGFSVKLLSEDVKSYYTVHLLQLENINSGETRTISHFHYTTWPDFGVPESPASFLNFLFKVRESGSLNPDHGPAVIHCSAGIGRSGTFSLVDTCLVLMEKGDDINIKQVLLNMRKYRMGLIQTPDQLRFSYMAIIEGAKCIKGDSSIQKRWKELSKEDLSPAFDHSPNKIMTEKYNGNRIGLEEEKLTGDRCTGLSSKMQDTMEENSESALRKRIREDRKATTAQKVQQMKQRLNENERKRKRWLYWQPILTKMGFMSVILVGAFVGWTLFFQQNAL
Outline: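 Degradation read-out: lytic HiBiT luminescence after 24 h treatment (37 °C, 5% CO2) of 5000 293T cells per well expressing HiBiT-fused PTPN2 from an N-terminal tag. Dosing was 11 points, half-log steps down from 10 μM, in duplicate; vehicle-treated and no-reagent wells served as controls.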

For Cn1c(=O)n(C2CCC(=O)NC2=O)c2ccc(C3CCN(C(=O)Nc4cccc(CS(=O)(=O)N5CC[C@H](Nc6cccc(-c7sc(C(=O)O)c(OCC(=O)O)c7Cl)c6F)CC5(C)C)c4)CC3)cc21 (stereo partly drawn) [Example 134, 3-(carboxymethoxy)-4-chloro-5-[3-[[(4S)-1-[[3-[[4-[1-(2,6-dioxo-3-piperidyl)-3-methyl-2-oxo-benzimidazol-S-yl]piperidine-1-carbonyl]amino]phenyl]methylsulfonyl]-2,2-dimethyl-4-piperidyl]amino]-2-fluoro-phenyl]thiophene-2-carboxylic acid], the DC50 (PTPN2 (B16F10.4 cells)) was under 50 nM and the DC50 [1] was under 50 nM.
For Cn1c(=O)n(C2CCC(=O)NC2=O)c2ccc(C3CCN(C(=O)Nc4cccc(CS(=O)(=O)N5CC[C@@H](Nc6cccc(-c7sc(C(=O)O)c(OCC(=O)O)c7Cl)c6F)CC5(C)C)c4)CC3)cc21 (stereo partly drawn) [Example 135, 3-(carboxymethoxy)-4-chloro-5-[3-[[(4R)-1-[[3-[[4-[1-(2,6-dioxo-3-piperidyl)-3-methyl-2-oxo-benzimidazol-5-yl]piperidine-1-carbonyl]amino]phenyl]methylsulfonyl]-2,2-dimethyl-4-piperidyl]amino]-2-fluoro-phenyl]thiophene-2-carboxylic acid], the DC50 (PTPN2 (B16F10.4 cells)) was under 50 nM and the DC50 [1] was 50 to 200 nM.
Cn1c(=O)n(C2CCC(=O)NC2=O)c2ccc(N3CC(OC(=O)Nc4cccc(CS(=O)(=O)N5CC[C@H](Nc6cccc(-c7sc(C(=O)O)c(OCC(=O)O)c7Cl)c6)CC5(C)C)c4)C3)cc21 (stereo partly shown) [Example 136] gave a DC50 (PTPN2 (B16F10.4 cells)) of at least 1000 nM and a DC50 [1] of 200 to 1000 nM.
CC(C)n1c(=O)n(C2CCC(=O)NC2=O)c2ccc(C3CCN(C(=O)Nc4cccc(CS(=O)(=O)N5CC[C@H](Nc6cccc(-c7sc(C(=O)O)c(OCC(=O)O)c7Cl)c6)CC5(C)C)c4)CC3)cc21 (stereo partly shown) [Example 137] gave a DC50 (PTPN2 (B16F10.4 cells)) of 50 to 200 nM and a DC50 [1] of 50 to 200 nM.
In the case of Cn1c(=O)n(C2CCC(=O)NC2=O)c2ccc([C@H]3CC[C@H](C(=O)Nc4cccc(CS(=O)(=O)N5CC[C@H](Nc6cccc(-c7sc(C(=O)O)c(OCC(=O)O)c7Cl)c6)CC5(C)C)c4)CC3)cc21 (stereo partly drawn) [Example 138, 3-(carboxymethoxy)-4-chloro-5-(3-(((4S)-1-((3-((1r,4S)-4-(1-(2,6-dioxopiperidin-3-yl)-3-methyl-2-oxo-2,3-dihydro-1H-benzo[d]imidazol-5-yl)cyclohexane-1-carboxamido)benzyl)sulfonyl)-2,2-dimethylpiperidin-4-yl)amino)phenyl)thiophene-2-carboxylic acid], the DC50 (PTPN2 (B16F10.4 cells)) is reported as under 50 nM and the DC50 [1] is reported as under 50 nM.
Cn1c(=O)n(C2CCC(=O)NC2=O)c2ccc([C@H]3CC[C@@H](C(=O)Nc4cccc(CS(=O)(=O)N5CC[C@H](Nc6cccc(-c7sc(C(=O)O)c(OCC(=O)O)c7Cl)c6)CC5(C)C)c4)CC3)cc21 (stereo partly drawn) [Example 139, 3-(carboxymethoxy)-4-chloro-5-(3-(((4S)-1-((3-((1s,4R)-4-(1-(2,6-dioxopiperidin-3-yl)-3-methyl-2-oxo-2,3-dihydro-1H-benzo[d]imidazol-5-yl)cyclohexane-1-carboxamido)benzyl)sulfonyl)-2,2-dimethylpiperidin-4-yl)amino)phenyl)thiophene-2-carboxylic acid] showed a DC50 (PTPN2 (B16F10.4 cells)) of 50 to 200 nM and a DC50 [1] of under 50 nM.
Work on Cn1c(=O)n(C2CCC(=O)NC2=O)c2ccc(N3CC4(CN(C(=O)Nc5cccc(CS(=O)(=O)N6CC[C@H](Nc7cccc(-c8sc(C(=O)O)c(OCC(=O)O)c8Cl)c7)CC6(C)C)c5)C4)C3)cc21 (stereo partly drawn) [Example 140, 3-(carboxymethoxy)-4-chloro-5-[3-[[(4S)-1-[[3-[[6-[1-(2,6-dioxo-3-piperidyl)-3-methyl-2-oxo-benzimidazol-5-yl]-2,6-diazaspiro[3.3]heptane-2-carbonyl]amino]phenyl]methylsulfonyl]-2,2-dimethyl-4-piperidyl]amino]phenyl]thiophene-2-carboxylic acid] yielded a DC50 (PTPN2 (B16F10.4 cells)) of 50 to 200 nM and a DC50 [1] of under 50 nM.
With Cn1c(=O)n(C2CCC(=O)NC2=O)c2ccc(N3CCC(N4CCN(c5cccc(CS(=O)(=O)N6CCC(Nc7cccc(-c8sc(C(=O)O)c(OCC(=O)O)c8Cl)c7)CC6)c5)C4=O)CC3)cc21 (stereo not shown) [Example 142, 3-(carboxymethoxy)-4-chloro-5-(3-((1-((3-(3-(1-(1-(2,6-dioxopiperidin-3-yl)-3-methyl-2-oxo-2,3-dihydro-1H-benzo[d]imidazol-5-yl)piperidin-4-yl)-2-oxoimidazolidin-1-yl)benzyl)sulfonyl)piperidin-4-yl)amino)phenyl)thiophene-2-carboxylic acid] the DC50 (PTPN2 (B16F10.4 cells)) was 50 to 200 nM and the DC50 [1] was under 50 nM.
Cn1nc(C2CCC(=O)NC2=O)c2ccc(C3CCN(C(=O)Nc4cccc(CS(=O)(=O)N5CC[C@H](Nc6cccc(-c7sc(C(=O)O)c(OCC(=O)O)c7Cl)c6)CC5(C)C)c4)CC3)cc21 (stereo partly drawn) [Example 143, 3-(carboxymethoxy)-4-chloro-5-[3-[[(4S)-1-[[3-[[4-[3-(2,6-dioxo-3-piperidyl)-1-methyl-indazol-6-yl]piperidine-1-carbonyl]amino]phenyl]methylsulfonyl]-2,2-dimethyl-4-piperidyl]amino]phenyl]thiophene-2-carboxylic acid] was tested, and the DC50 (PTPN2 (B16F10.4 cells)) was 50 to 200 nM and the DC50 [1] was 50 to 200 nM.
For Cn1c(=O)n(C2CCC(=O)NC2=O)c2ccc(Nc3ccc(C(=O)Nc4cccc(CS(=O)(=O)N5CC[C@H](Nc6cccc(-c7sc(C(=O)O)c(OCC(=O)O)c7Cl)c6)CC5(C)C)c4)cc3)cc21 (stereo partly shown) [Example 144], the DC50 (PTPN2 (B16F10.4 cells)) was 50 to 200 nM and the DC50 [1] was under 50 nM.
In the case of Cn1c(=O)n(C2CCC(=O)NC2=O)c2ccc(-c3ccc(NC(=O)Nc4cccc(CS(=O)(=O)N5CC[C@H](Nc6cccc(-c7sc(C(=O)O)c(OCC(=O)O)c7Cl)c6)CC5(C)C)c4)cc3)cc21 (stereo partly drawn) [Example 145, 3-(carboxymethoxy)-4-chloro-5-(3-(((4S)-1-((3-(3-(4-(1-(2,6-dioxopiperidin-3-yl)-3-methyl-2-oxo-2,3-dihydro-1H-benzo[d]imidazol-5-yl)phenyl)ureido)benzyl)sulfonyl)-2,2-dimethylpiperidin-4-yl)amino)phenyl)thiophene-2-carboxylic acid], the DC50 (PTPN2 (B16F10.4 cells)) is reported as 50 to 200 nM and the DC50 [1] is reported as 50 to 200 nM.
With CC1(C)CC(Nc2cccc(-c3sc(C(=O)O)c(OCC(=O)O)c3Cl)c2F)CCN1S(=O)(=O)Cc1ccc(F)c(NC(=O)C2CN(C(=O)CNc3cccc4c3CN(C3CCC(=O)NC3=O)C4=O)C2)c1 (stereo not shown) [Example 146, 3-(carboxymethoxy)-4-chloro-5-[3-[[1-[[3-[[1-[2-[[2-(2,6-dioxo-3-piperidyl)-1-oxo-isoindolin-4-yl]amino]acetyl]azetidine-3-carbonyl]amino]-4-fluoro-phenyl]methylsulfonyl]-2,2-dimethyl-4-piperidyl]amino]-2-fluoro-phenyl]thiophene-2-carboxylic acid] the DC50 (PTPN2 (B16F10.4 cells)) was 200 to 1000 nM and the DC50 [1] was under 50 nM.
Compound Cn1c(=O)n(C2CCC(=O)NC2=O)c2ccc(C3CCN(C(=O)Nc4cccc(CS(=O)(=O)N5CC[C@H](Nc6cccc(-c7sc(C(=O)O)c(OCC(=O)O)c7Cl)c6)CC5(C)C)c4)CC3(F)F)cc21 (stereo partly drawn) [Example 147, 3-(carboxymethoxy)-4-chloro-5-[3-[[(4S)-1-[[3-[[4-[1-(2,6-dioxo-3-piperidyl)-3-methyl-2-oxo-benzimidazol-5-yl]-3,3-difluoro-piperidine-1-carbonyl]amino]phenyl]methylsulfonyl]-2,2-dimethyl-4-piperidyl]amino]phenyl]thiophene-2-carboxylic acid] has a DC50 (PTPN2 (B16F10.4 cells)) of under 50 nM and a DC50 [1] of under 50 nM.
With CC1(C)C[C@@H](Nc2cccc(-c3sc(C(=O)O)c(OCC(=O)O)c3Cl)c2F)CCN1S(=O)(=O)Cc1ccc(F)c(NC(=O)C2CN(C(=O)CNc3cccc4c3CN(C3CCC(=O)NC3=O)C4=O)C2)c1 (stereo partly drawn) [Example 148, 3-(carboxymethoxy)-4-chloro-5-[3-[[(4S)-1-[[3-[[1-[2-[[2-(2,6-dioxo-3-piperidyl)-1-oxo-isoindolin-4-yl]amino]acetyl]azetidine-3-carbonyl]amino]-4-fluoro-phenyl]methylsulfonyl]-2,2-dimethyl-4-piperidyl]amino]-2-fluoro-phenyl]thiophene-2-carboxylic acid] the DC50 (PTPN2 (B16F10.4 cells)) was 50 to 200 nM and the DC50 [1] was under 50 nM.
In the case of CC1(C)C[C@H](Nc2cccc(-c3sc(C(=O)O)c(OCC(=O)O)c3Cl)c2F)CCN1S(=O)(=O)Cc1ccc(F)c(NC(=O)C2CN(C(=O)CNc3cccc4c3CN(C3CCC(=O)NC3=O)C4=O)C2)c1 (stereo partly shown) [Example 149], the DC50 (PTPN2 (B16F10.4 cells)) is reported as at least 1000 nM and the DC50 [1] is reported as 50 to 200 nM.
Compound CC1(C)C[C@@H](Nc2cccc(-c3sc(C(=O)O)c(OCC(=O)O)c3Cl)c2)CCN1S(=O)(=O)Cc1cccc(NC(=O)N2CCC(c3ccc4c(c3)C3(CC3)C(=O)N4C3CCC(=O)NC3=O)CC2)c1 (stereo partly shown) [Example 150] has a DC50 (PTPN2 (B16F10.4 cells)) of 50 to 200 nM and a DC50 [1] of 50 to 200 nM.
Work on Cn1c(=O)n(C2CCC(=O)NC2=O)c2cccc(OC3CCN(C(=O)Nc4cccc(CS(=O)(=O)N5CC[C@H](Nc6cccc(-c7sc(C(=O)O)c(OCC(=O)O)c7Cl)c6)CC5(C)C)c4)CC3)c21 (stereo partly shown) [Example 151] yielded a DC50 (PTPN2 (B16F10.4 cells)) of 200 to 1000 nM and a DC50 [1] of 200 to 1000 nM.
